Reference: article PMC10222548, “Semisynthesis, Biological Evaluation and Molecular Docking Studies of Barbatic Acid Derivatives as Novel Diuretic Candidates” (Molecules, 2023)

Assays:
[1] = tested on: mice; design: method as in PMID 32602352; settings: cited from earlier work
[2] = tested on: C2O4^2− transport, MDCK cells; experiment: In vitro litholytic activity: C2O4^2− transport inhibition, Transwell chamber with MDCK cells; assay type: cell-based, canine; settings: Canis lupus familiaris; 100 μmol/L, MDCK cells in Transwell; mean ± SD of three replicates; read-out: Transport Inhibition Rate (%) C2O4^2−
Outline: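 MDCK monolayers in Transwell upper chamber, used once resistance ≥300 Ω cm^2, treated 24 h with compounds at 100 μmol/L or saline. CaC2O4 (30 mmol/L) then added above, PBS below; lower-chamber Ca^2+ and C2O4^2− measured by kit at 0.5, 1, 2, 3 h, inhibition rate from OD versus blank.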

[3] = tested on: Na^+ transport, MDCK cells; experiment: In vitro diuretic activity: Na^+ transport inhibition, Transwell chamber seeded with MDCK cells; assay type: cell-based, canine; settings: Canis lupus familiaris, MDCK, 100 μmol/L, MDCK cells in Transwell; mean ± SD of three replicates; negative = promotion; read-out: Transport Inhibition Rate (%) Na^+
Outline: (§1)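 MDCK monolayers on Transwell inserts (resistance ≥300 Ω cm^2) exposed apically to compounds at 100 μmol/L for 24 h. Then 15 mg/mL NaCl added to upper chamber; Na^+ and Cl^− in lower fluid measured by kit OD at 0.5, 1, 2 and 3 h. Inhibition % = (ODblank − ODexperimental)/ODblank × 100, blank = normal saline.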

[4] = tested on: Ca^2+ transport, MDCK cells; experiment: In vitro litholytic activity: Ca^2+ transport inhibition, Transwell chamber with MDCK cells; assay type: cell-based, canine; settings: Canis lupus familiaris, 100 μmol/L, mean ± SD of three replicates, read-out: Transport Inhibition Rate (%) Ca^2+
[5] = tested on: Cl^− transport, MDCK cells; experiment: In vitro diuretic activity: Cl^− transport inhibition, Transwell chamber seeded with MDCK cells; assay type: cell-based, canine; settings: Canis lupus familiaris; 100 μmol/L, MDCK cells in Transwell; mean ± SD of three replicates; negative = promotion; read-out: Transport Inhibition Rate (%) Cl^−
Outline: as §1

[6] = tested on: MDCK cells; experiment: MTT cytotoxicity assay on MDCK cells; assay type: cell-based, canine; settings: Canis lupus familiaris, 100 μmol/L, 24 h, mean ± SD of three replicates, read-out: Growth Inhibition Rate (%)
Outline: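 MDCK cells at 10^4/well, grown 24 h, exposed 24 h to compound at 100 μmol/L (saline control; hydrochlorothiazide 100 μmol/L reference). MTT 4 h, DMSO solubilization, OD 490 nm; growth inhibition % = (ODblank − ODexperimental)/ODblank × 100.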

| Compound | diuretic effect on mice [1] | inhibition at 100 µM [2] [%] | inhibition at 100 µM [3] [%] | inhibition at 100 µM [4] [%] | inhibition at 100 µM [5] [%] | inhibition at 100 µM [6] [%] | melting point [°C] |
| --- | --- | --- | --- | --- | --- | --- | --- |
| COc1cc(C)c(C(=O)Oc2cc(C)c(C(=O)O)c(O)c2C)c(O)c1C [Compound 1, Barbatic acid] | had a diuretic effect on mice | 2.97 ± 2.21 | 12.3 ± 0.5 | 8.8 ± 0.18 | 2.34 ± 1.2 | < 0 |  |
| C=CCOC(=O)c1c(C)cc(OC(=O)c2c(C)cc(OC(C)C)c(C)c2O)c(C)c1O [Compound 6z, allyl 2-hydroxy-4-(2-hydroxy-4-isopropoxy-3,6-dimethylbenzoyloxy)-3,6-dimethylbenzoate] |  | 0.23 ± 2.16 | -22.7 ± 1.05 | -2.56 ± 0.17 | -32.6 ± 3.1 | 2.47 ± 0.5 | 111 to 114 |
